These results are taken from EPA's aquatic toxicity sets.

In the data set the test system is Tetrahymena pyriformis. Nature of the data set: 48 h IGC50 (-log10 mol/L); higher = more toxic.
As to `CC(C)(C)c1ccncc1`, the “48 h IGC50 (-log10 mol/L)” value is 3.2.
As for `C#Cc1ccccc1`, the “48 h IGC50 (-log10 mol/L)” value stood at 2.86.
Next, `O=[N+]([O-])c1ccc(F)c(F)c1F`: 4.89.
With `CCCCCCCN` the figure was 3.21.
`CCc1cccs1`: the “48 h IGC50 (-log10 mol/L)” value came out at 2.57.
With `CC(Br)C(N)=O` (centres undefined) the figure was 3.
Next, `Cc1cccc(C#N)c1`: 2.75; `CCCCCc1ccc(O)cc1`: 4.58; `O=C(O)c1ccc(Cl)c(Cl)c1`: 3.31.
Next, `CC(C)C[C@H](N)CO`: 2.38.
Regarding `CCCCC(CC)COC(=O)c1ccc(O)cc1` (centres undefined), the “48 h IGC50 (-log10 mol/L)” value was found to be 5.51.
Next, `CCCCCOC(=O)c1ccccc1`: 4.37.
With `CCOC(=O)CBr` the figure was 5.68; with `S=C=NCc1cccc2ccccc12`, 6.06; with `Oc1cc(Cl)ccc1Cl`, 4.13.
With `Cc1ccnc(C)c1` the figure was 2.35.
Regarding `Oc1c(F)c(F)cc(F)c1F`, the “48 h IGC50 (-log10 mol/L)” value was 4.17.
With `Cc1ccnc(Cl)c1[N+](=O)[O-]` the figure was 3.29; with `Nc1cc(Cl)ccc1O`, 3.78.
Next, `CCC#CCCO`: 1.98; `CNc1ccc(C(=O)OC)cc1`: 3.31; `Clc1ccccn1`: 2.16.
Next, `C=COC(=O)CCCCC`: 3.08; `CCCCCCC#CC(=O)OC`: 4.32.
Regarding `CC(C)=CCO`, the “48 h IGC50 (-log10 mol/L)” value came to 1.76.
For `O=Cc1cccc(O)c1O`, the “48 h IGC50 (-log10 mol/L)” value stood at 3.11.
With `CCCC(C)O` (centres undefined) the figure was 1.84.
With `CCOC(=O)CCCCCCC(=O)OCC` the figure was 3.7; with `Oc1ccc(O)cc1`, 3.47; with `CC#CCCO`, 1.82.
With `CCc1ccc(-c2ccccc2)cc1` the figure was 4.97; with `CC(C)CCC#N`, 2.21; with `CNCCc1ccccc1`, 2.59.
As for `N#Cc1ccc(-c2ccccc2)cc1`, the “48 h IGC50 (-log10 mol/L)” value was 4.24.
Next, `Cc1ccc(Br)s1`: 3.65.
Next, `Oc1ccc(Cl)c(Cl)c1`: 4.75; `CCOC(=O)CCCBr`: 2.97; `C=CC(C)(C)O`: 1.61.
Next, `S=C=Nc1ccc2c(c1)CCC2`: 5.48; `C#CCN(C)C`: 1.85; `CC1CCC(=O)O1` (centres undefined): 1.43.
Take `N#CCCCCCCCl`: the “48 h IGC50 (-log10 mol/L)” value stood at 3.29.
With `CC(=O)c1ccc(O)c(C(N)=O)c1` the figure was 2.9; with `CCC(=O)OC`, 1.39; with `Oc1c(Cl)cccc1Cl`, 3.73.
Turning to `COc1ccc(C=O)cc1O`, the “48 h IGC50 (-log10 mol/L)” value is 2.86.
Next, `CCOC(=O)CCCl`: 2.5; `COc1ccc(C(=O)c2ccccc2)c(O)c1`: 4.42.
With `CCOC(=O)CC#N` the figure was 1.77; with `N#Cc1cc([N+](=O)[O-])c(Cl)c([N+](=O)[O-])c1`, 5.66.
With `Oc1c(F)c(F)c(F)c(F)c1F` the figure was 4.63; with `CCOC(=O)C(C)CC` (centres undefined), 2.11.
Consider `CCCCCCCCCO`, for which the “48 h IGC50 (-log10 mol/L)” value amounted to 3.85.
Next, `C=C(C=O)CCCC`: 4.07; `NCCCCCO`: 1.24.
With `Oc1c(Br)cc(Br)c(O)c1Br`, the “48 h IGC50 (-log10 mol/L)” value worked out at 4.06.
With `CC(C)(Br)[N+](=O)[O-]` the figure was 4.85; with `O=C(O)c1cc(Br)cc(Br)c1`, 3.46; with `CC(C)N`, 2.14.
With `CCCCC(C(=O)OCC)C(=O)OCC` the figure was 3.56.
Next, `Cc1ccc(O)cc1[N+](=O)[O-]`: 3.74; `Oc1cccc(I)c1`: 4.12.
As for `c1cnc2c(c1)ccc1ncccc12`, the “48 h IGC50 (-log10 mol/L)” value was determined as 4.07.
Next, `O=[N+]([O-])c1cc(Cl)cc(Cl)c1[N+](=O)[O-]`: 5.42; `COC(=O)CCCCCCCCCCCC(=O)OC`: 4.65; `CCCN=C=S`: 4.69.
Next, `O=C(CBr)C(=O)CBr`: 4.76.
Turning to `O=Cc1cc2ccccc2c2ccccc12`, the “48 h IGC50 (-log10 mol/L)” value was 4.71.
With `O=C(O)c1cccc(Cl)c1` the figure was 2.87.
